Patent US20040213826A1, “Medical devices and methods for inhibiting proliferation of smooth muscle cells” (priority 2003, published 2004)
Read-outs that look alike come from different tables or passages of the source.

Key:
embryoid bodies = conditions: cited from earlier work
[1] = tested on: vascular-endothelial-growth-factor-stimulated human umbilical endothelial cells; conditions: cited from earlier work
[2] = tested on: rat aortic smooth muscle cells (RASM cells); assay: RASM cell proliferation assay (Promega CellTiter 96 AQueous One Solution); format: cell-based; conditions: for inhibition of RASM cell proliferation (in words) / IC50, inhibition of SMC proliferation: RASM cells, 48 h exposure; for IC50, inhibition of SMC proliferation: light absorption
Method: (§1) Low-passage rat aortic smooth muscle cells (RASM cells) from primary isolates and human aortic smooth muscle cells (HASM cells) were obtained and grown according to the suppliers' instructions. RASM cells were cultured in a medium comprising DMEM+10% FBS+100 U/ml penicillin and […], which was changed every 48 h. Micro-cultures of 5000 cells of each of the RASM and HASM were established in quadruplicate, placedin flat-bottom 96-well micro-titer plates, and exposed to various concentrations of the trichostatin-A, oxamflatin, and rapamycin. Trichostatin-A and oxamflatin were dissolved in dimethyl sulfoxide (DMSO) at various concentrations, and stored at −20° C. prior to use; rapamycin was dissolved in methanol (100 nM). After 48 h following initial exposure, the cultures were pulsed with […] of a cell-proliferation assay solution (Promega CellTiter 96 AQueous One Solution, Catalog G3580), and incubated for 1 h. The cultures' light absorbance was then measured on a BioRad Benchmark micro-plate reader, which was set to the range Ab 490 nm-Ab 655 nm. Light absorbed by the blank was accounted for in the tests. All experiments were repeated at least twice. Cell viability was determined using trypan blue staining, after incubating RASM cells with 100 ng/ml of rapamycin and trichostatin-A for 48 h.
Referring to FIG. 1, micro-cultures consisting of RASM cells were plated into a 96-well dish, and exposed as follows: a number of the micro-cultures were sham exposed, a number were exposed to rapamycin (5, 10, and 50 ng/ml, respectively), and a number were exposed to trichostatin-A ([…], respectively). The RASM cells were exposed for 48 h, prior to assessing cell proliferation.
Referring to FIG. 2, micro-cultures of RASM cells were plated into a 96-well dish, and exposed as follows: a number of the micro-cultures were sham exposed, and a number were exposed to oxamflatin (5, 10, 50, 100, 200 and 500 ng/ml, respectively)., The RASM cells were exposed for 48 h before assessing cell proliferation.

[3] = tested on: IL-2 expression in Jurkat cells; conditions: read-out: IC50, inhibition of IL-2 expression; cited from earlier work
RASM cells = assay: Cell viability by trypan blue staining; format: cell-based, rat; conditions: 100 ng/ml, 48 h
Method: as §1

[4] = cited from earlier work
[5] = tested on: porcine coronary arteries; conditions: 1 mM; cited from earlier work
[6] = tested on: primary cultured SMCs from rat thoracic aorta; conditions: 1 μg/ml; cited from earlier work

| Compound | angiogenesis in embryoid bodies (embryoid bodies; 400 nM) | invasion of type I collagen gel and formation of capillary like structures ([1]; concentration not given) | inhibition of RASM cell proliferation (in words) [2] | IC50, inhibition of SMC proliferation [2] [µg/mL] | inhibition of RASM cell proliferation compared with rapamycin ([2]; equal concentrations of 50 ng/ml, 48 h) | IC50 [3] [nM] | cell viability, trypan blue exclusion, versus control cells (RASM cells) | angiogenesis in embryoid bodies (embryoid bodies; 10 nM) | invasion of type I collagen gel and formation of capillary like structures ([1]; 400 nM) | solubility [4] | NO-dependent relaxation of porcine coronary arteries [5] | PDGF-induced competence of primary cultured SMCs [6] |
| --- | --- | --- | --- | --- | --- | --- | --- | --- | --- | --- | --- | --- |
| O=C(CCCCCCC(=O)Nc1ccccc1)NO [SAHA, suberoylanilide hydroxamic acid] | inhibit angiogenesis | prevent |  |  |  |  |  |  |  |  |  |  |
| CC(/C=C/C(=O)NO)=C\[C@@H](C)C(=O)c1ccc(N(C)C)cc1 [trichostatin-A] |  |  | significant inhibition of SMC proliferation | ~0.02 | greater than that exhibited by rapamycin | 73 | no significant difference | inhibit angiogenesis | prevent | soluble in DMSO and ethanol | attenuated | inhibited |
| oxamflatin |  |  | inhibited RASM cell proliferation | ~0.075 |  |  |  |  |  |  |  |  |
